As usually defined, the ED50 is the dose that gives a 50% effect, or the effect in half of the subjects.

We go through five compounds from patent US6399614B1, “1-(N-phenylaminoalkyl)piperazine derivatives substituted at position 2 of the phenyl ring” (Recordati S.A. Chemical and Pharmaceutical Company, priority 1997, dated 2002).

One assay deals with urinary bladder. As to the kind of experiment: Cystometric parameters (cystometrogram) in conscious rats. In kind it is in vivo, rat. The note with it: for BVC after treatment / MP after treatment: mean ± S.E.; for change in vivo at 0.3 mg/kg / change in vivo at 1 mg/kg / change in vivo at 0.1 mg/kg: Rattus norvegicus, iv, 0.25 h, after vs before; for change in vivo at 0.3 mg/kg: i.v. 300 μg/kg; for change in vivo at 1 mg/kg: i.v. 1000 μg/kg; for change in vivo at 0.1 mg/kg: i.v. 100 μg/kg.

In assay [1] the test system is rhythmic bladder voiding contractions. Briefly: Volume-induced rhythmic bladder voiding contractions in anaesthetized rats. It counts as in vivo, rat. The note with it: Rattus norvegicus, intravenous; for ED (10 min disappearance of contractions): extrapolated dose inducing 10 min of disappearance of the contractions, anaesthetized rats, read-out: ED10 min; for ED50: extrapolated dose inducing a reduction of the number of contractions >30% in 50% of treated rats, read-out: ED50 (frequency).

Like-named read-outs stand apart in the source and are kept apart here.

In the assay on urinary bladder (15 min after i.v. 300 μg/kg), `COc1ccccc1N1CCN(CCN(C(=O)C2CCCCC2)c2ccccc2OC)CC1` [Example 23, 1-[N-(2-methoxyphenyl)-N-cyclohexylcarbonyl-2-aminoethyl]-4-(2-methoxyphenyl)piperazine] showed a BVC after treatment of 0.77 ± 0.03 mL and an MP after treatment of 86.4 ± 10.0 mmHg. Further, in the assay with urinary bladder (15 min after i.v. 1000 μg/kg), the BVC after treatment stood at 0.89 ± 0.12 mL and the MP after treatment is recorded as 61.9 ± 8.5 mmHg. Also, in the assay on urinary bladder (read-out: BVC % of change), the change in vivo at 0.3 mg/kg is 54.3% and the change in vivo at 1 mg/kg was 34.5%. Besides, in the assay on urinary bladder (read-out: MP % of change), the change in vivo at 0.3 mg/kg is -7.6% and the change in vivo at 1 mg/kg was -17.1%. In assay [1], the ED (10 min disappearance of contractions) was 0.093 mg/kg and the ED50 was 0.018 mg/kg.
Regarding `COC(=O)c1ccccc1N(CCN1CCN(c2ccccc2OC)CC1)C(=O)C1CCCCC1` [Example 18, 1-[N-(2-methoxycarbonylphenyl)-N-cyclohexylcarbonyl-2-aminoethyl]-4-(2-methoxyphenyl)piperazine], in the assay on urinary bladder (15 min after i.v. 100 μg/kg), the BVC after treatment worked out at 0.80 ± 0.09 mL and the MP after treatment was 48.5 ± 4.9 mmHg. In the assay on urinary bladder (15 min after i.v. 1000 μg/kg), this compound gave a BVC after treatment of 0.89 ± 0.16 mL and an MP after treatment of 79.3 ± 17.0 mmHg. Moreover, in the assay with urinary bladder (read-out: BVC % of change), the change in vivo at 0.1 mg/kg came out at 33.3% and the change in vivo at 1 mg/kg worked out at 40.3%. In addition, in the assay on urinary bladder (read-out: MP % of change), the change in vivo at 0.1 mg/kg is -34.3% and the change in vivo at 1 mg/kg was -13.5%. Moreover, in assay [1], the ED (10 min disappearance of contractions) was 0.101 mg/kg and the ED50 is 0.017 mg/kg.
On to `COc1ccccc1N1CCN(CCN(C(=O)C2CCCCC2)c2ccccc2)CC1` [Compound A, 1-(N-phenyl-N-cyclohexylcarbonyl-2-aminoethyl)-4-(2-methoxyphenyl)piperazine, reference compound], for which, in the assay with urinary bladder (15 min after i.v. 300 μg/kg), the BVC after treatment was found to be 0.87 ± 0.05 mL and the MP after treatment stood at 85.6 ± 11.3 mmHg. In addition, in the assay with urinary bladder (15 min after i.v. 1000 μg/kg), the BVC after treatment stood at 0.97 ± 0.11 mL and the MP after treatment worked out at 84.1 ± 5.2 mmHg. Also, in the assay with urinary bladder (read-out: BVC % of change), the change in vivo at 0.3 mg/kg is 7.4% and the change in vivo at 1 mg/kg is 24.4%. Besides, in the assay with urinary bladder (read-out: MP % of change), the change in vivo at 0.3 mg/kg was -5.5% and the change in vivo at 1 mg/kg was -6.8%. In addition, in the assay with urinary bladder (conscious rats, i.v.), the “i.v. dose at which a significant increase in BVC was observed” value is given as 1.0 mg/kg. For the same compound, in assay [1], the ED (10 min disappearance of contractions) is 0.65 mg/kg and the ED50 is 0.033 mg/kg.
As for `COc1ccccc1N1CCN(CCN(C(=O)C2CCCCC2)c2ccccc2[N+](=O)[O-])CC1` [Example 2, 1-[N-(2-nitrophenyl)-N-cyclohexylcarbonyl-2-aminoethyl]-4-(2-methoxyphenyl) piperazine], in the assay on urinary bladder (15 min after i.v. 300 μg/kg), the BVC after treatment was 0.87 ± 0.10 mL and the MP after treatment is reported as 80.4 ± 6.5 mmHg. In the assay on urinary bladder (15 min after i.v. 1000 μg/kg), this compound displayed a BVC after treatment of 0.75 ± 0.10 mL and an MP after treatment of 99.6 ± 11.2 mmHg. Besides, in the assay on urinary bladder (read-out: BVC % of change), the change in vivo at 0.3 mg/kg was found to be 22.5% and the change in vivo at 1 mg/kg came to 21%. In the assay on urinary bladder (read-out: MP % of change), the change in vivo at 0.3 mg/kg is -15.7% and the change in vivo at 1 mg/kg was -8.6%. For the same compound, in the assay with urinary bladder (conscious rats, i.v.), the “effect on MP (in words)” value was “slight, albeit significant, decrease in MP” and the “i.v. dose at which a significant increase in BVC was observed” value came to 0.3 mg/kg. Further, in assay [1], the ED (10 min disappearance of contractions) is 0.06 mg/kg and the ED50 is 0.009 mg/kg.
In the assay with urinary bladder (15 min after i.v. 100 μg/kg), `O=C(C1CCCCC1)N(CCN1CCN(c2cccc3[nH]ccc23)CC1)c1ccccc1[N+](=O)[O-]` [Example 13, 1-[N-(2-nitrophenyl)-N-cyclohexylcarbonyl-2-aminoethyl]-4-(4-indolyl)piperazine] displayed a BVC after treatment of 1.07 ± 0.14 mL and an MP after treatment of 75.6 ± 13.7 mmHg. For the same compound, in the assay on urinary bladder (15 min after i.v. 300 μg/kg), the BVC after treatment worked out at 0.95 ± 0.12 mL and the MP after treatment is recorded as 65.7 ± 13.8 mmHg. In the assay on urinary bladder (read-out: BVC % of change), the change in vivo at 0.1 mg/kg stood at 13.4% and the change in vivo at 0.3 mg/kg was 30.2%. Moreover, in the assay with urinary bladder (read-out: MP % of change), the change in vivo at 0.1 mg/kg is -12.5% and the change in vivo at 0.3 mg/kg was -10.6%. In addition, in assay [1], the ED (10 min disappearance of contractions) is 0.266 mg/kg and the ED50 was 0.029 mg/kg.
